The text below walks through data of paper PMC12445744, “Molecular docking to homology models of human and Trypanosoma brucei ERK8 that identified ortholog-specific inhibitors” (PLOS Neglected Tropical Diseases, 2025).

Values joined by “and” are separate entries in the source; they are usually repeats but may differ in a detail not shown here. Equal entries are not always repeated.

The target in this assay is T1, TbERK8 (Trypanosoma brucei brucei, UniProt Q38B88).
T1 sequence (Q38B88 1-442): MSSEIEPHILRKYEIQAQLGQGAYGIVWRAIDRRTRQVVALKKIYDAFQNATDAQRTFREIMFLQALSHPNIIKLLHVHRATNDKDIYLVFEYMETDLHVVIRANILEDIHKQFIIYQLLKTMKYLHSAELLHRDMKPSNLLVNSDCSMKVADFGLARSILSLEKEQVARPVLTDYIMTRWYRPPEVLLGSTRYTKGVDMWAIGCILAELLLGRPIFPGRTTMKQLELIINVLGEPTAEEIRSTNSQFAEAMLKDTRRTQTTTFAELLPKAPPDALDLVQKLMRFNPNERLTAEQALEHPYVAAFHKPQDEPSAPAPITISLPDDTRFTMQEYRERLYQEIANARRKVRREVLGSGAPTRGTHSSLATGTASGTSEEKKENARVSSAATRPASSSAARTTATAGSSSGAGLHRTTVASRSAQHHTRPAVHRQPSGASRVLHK
As to the kind of experiment: Luciferase-based kinase inhibition assay (ATP luminescence), GST-tagged TbERK8 with MBP substrate. In kind it is biochemical. The conditions noted are these: for raw luminescence, TbERK8: sheet Kinase_glo_080924_IFPS (2), replicate wells, listed as Ida. Also noted: raw luminescence, TbERK8: unit of the concentration uncertain. As to the method: Escherichia coli strain Rosetta 2 (DE3) (Cat# 71397, MilliporeSigma, Burlington, MA) was transformed with the plasmid pGEX2T expressing the full-length hERK8 coding region or pGSTAg expressing the full-length TbERK8 coding region. One liter of Terrific Broth media containing 100 μg/ml Ampicillin and 30 μg/ml chloramphenicol in 2 L baffled flasks was inoculated with 25 mL from an overnight culture of Rosetta 2 strains harboring either the pGEX2T-hERK8 or pGSTAg-TbERK8 plasmid. Two baffled flasks were inoculated with each overnight strain and incubated and shaken at 175 RPM in a New Brunswick Innova 44R Incubator Shaker (Fischer Scientific, Pittsburgh, PA) at 37 °C until the cultures reached an O.D.600 of 0.94. Once the cultures in the flask reached the target O.D.600, the flasks were cooled to 4 °C in an ice water bath. The cooled cultures were induced by adding isopropyl β-D-1-thiogalactopyranoside (IPTG) to a final concentration of 0.1 mM and shaken at 16 °C for 16 hours at 175 RPM in a New Brunswick Innova 44R Incubator Shaker (Fischer Scientific, Pittsburgh, PA). On the next day, the cultures were pelleted by centrifugation at 9000 xg in a JLA 10.500 rotor (Beckman Coulter; Brea, CA), and the media was decanted. The pellet was flash-frozen in liquid nitrogen and then thawed on ice. The thawed pellet was resuspended in lysis buffer (25 mM Tris, 75 mM NaCl, 0.5% TritonX-100 and 0.5% Nonidet P-40, 1 mM phenylmethanesulfonyl fluoride, 1 mM benzamidine⋅HCl) and lysed using a microfluidizer M-110P from Microfluidics (Westwood, MA). The crude lysates were clarified by centrifugation at 140,000 xg in a 45Ti rotor (Beckman Coulter, Brea, CA) for 30 min at 4°C. The clarified lysate was loaded by gravity to a 3 mL glutathione agarose resin column (Cat# G-250–10, GOLDBIO, St. Louis, MO) formed in a 1.5 × 20 cm glass chromatography column (Cat# 7371522, Bio-Rad, Hercules, CA). The column was washed with 30 mL of PBS (pH 7.4) containing 1 mM DTT. Elution buffer (50 mM Tris buffer pH 8.0 containing 10 mM reduced glutathione and 1 mM DTT was added to the washed column), and 1 mL fractions were collected by gravity and examined by SDS-PAGE stained by Coomassie dye. Peak fractions pooled from the elution were dialyzed (4x 1:500 dilutions) in kinase buffer (30 mM Tris, pH 7.4, 10 mM MgCl2, 1 mM DTT, 5% glycerol).
We performed kinase assays in buffer K (30 mM Tris pH 7.4, 10 mM MgCl2, 1 mM DTT, 5% glycerol, 50 μM ATP, and 0.1 mg/mL BSA) at 30°C for 30 min in 30 μL reactions. GST-tagged HsERK8 and TbERK8 were tested using myelin basic protein (MBP) (Cat# 13–110, Millipore, Darmstadt, Germany) as the substrate at increasing concentrations to determine the optimal activity for the assay. ATP consumption was determined by adding equal volumes of the kinase assay reagent (Promega, Cat# V5601, Madison, WI) following the manufacturer’s protocol. Luminescence was measured using the microplate reader (SpectraMax L, Molecular Devices, Sunnyvale, CA).
These compounds were screened for kinase inhibition utilizing a luciferase-based assay. Briefly, the kinases were tested using MBP as the substrate at a 14-fold molar excess in 384-well flat-bottom white plates (BRANDTECH Scientific, Cat# 781681, Essex, CT). These compounds were tested at concentrations ranging from […] to 150 nM. The kinases plus MBP substrate reactions were incubated with each inhibitor for 30 minutes at 30°C. Equal volumes of kinase assay mix Promega (Cat# V5601, Madison, WI) were added to the kinase/inhibitor reaction after 30 minutes, following the manufacturer’s protocol. ATP luminescence was measured using a microplate reader (SpectraMax L, Molecular Devices, Sunnyvale, CA). IC50 values were calculated from assays done in triplicate by fitting the data using Prism 8.1.1 (GraphPad).

For the molecule `CC(=O)[C@]1(O)Cc2c(O)c3c(c(O)c2[C@@H](O[C@H]2C[C@H](N)[C@H](O)[C@H](C)O2)C1)C(=O)c1ccccc1C3=O` [Idarubicin], the “raw luminescence, TbERK8” value by setting is: (0.00015 (unit uncertain) compound) 2715.27 RLU and 2728.74 RLU and 2394.11 RLU; (0.00061 (unit uncertain) compound) 1071.28 RLU and 918.564 RLU and 956.744 RLU; (0.00244 (unit uncertain) compound) 1109.46 RLU and 1118.45 RLU and 925.302 RLU; (0.00977 (unit uncertain) compound) 992.678 RLU and 972.465 RLU and 952.252 RLU; (0.03906 (unit uncertain) compound) 1019.63 RLU and 976.957 RLU and 1073.53 RLU; (0.15625 (unit uncertain) compound) 1318.33 RLU and 1147.64 RLU and 1078.02 RLU. For the same molecule, the “raw luminescence, TbERK8” value runs as follows: (0.62500 (unit uncertain) compound) 2223.42 RLU and 1980.86 RLU and 1909 RLU; (2.50000 (unit uncertain) compound) 2212.19 RLU and 2209.94 RLU and 2311.01 RLU; (10.00000 (unit uncertain) compound, signal = ATP left) 619.862 RLU and 786.057 RLU and 752.369 RLU. The “inhibitory effect on kinase activity of TbERK8” value (concentrations below 4.0 x10^-5 M (above this the red compound blocked luminescence)) is listed as “no detectible (n/d) inhibitory effect”.
